In publication PMC12406204 (Journal of Medicinal Chemistry, 2025):

What was measured:
[1] = Drug transport (BBB permeability) in Caco-2 monolayer; type: in vitro ADME; conditions: human; for efflux ratio at 120 min: Caco-2, bidirectional permeability ratio, read-out: P app (BA/AB); for Papp A→B at 120 min / Papp B→A at 120 min: Caco-2 monolayer, 1 × 10^–4 M
Experimental: (§1) To validate the early predictions from the CNS-MPO and BOILED-egg models (Figure ), we experimentally assessed the BBB permeability and P-gp interaction of the selected CB2R agonists. For these studies, two pairs of amide enantiomers (18p and 18o, 18e, and 18f) were selected, and the evaluations were conducted using established protocols previously published by our group. Key parameters measured included the permeability coefficients (P appBA and P appAB), the bidirectional permeability ratio (BA/AB), and the degree of interaction with P-gP, as detailed in Table .
Caco-2 cells were grown in Dulbecco’s high-glucose modified eagle medium, composed of 10% fetal bovine serum, 2 mM of glutamine, 100 U/mL of penicillin, and 0.1 mg/mL of streptomycin (all components purchased from Corning, Milan, Italy) in a humidified incubator at 37 °C with a 5% CO2 atmosphere. The experiment started with the preparation of the Caco-2 monolayer, which occurred by seeding the cells (20,000/well) in Millicell plates (Millipore, Milan, Italy). Its growth was followed for 21 days by changing the medium occasionally and measuring its transepithelial electrical resistance (TEER) daily using an epithelial voltohmmeter (Millicell-ERS) until a TEER value >240 ohms × cm^2 was reached. After 21 days, the plate was washed twice with Hank’s balanced salt solution (HBSS) (Invitrogen). After the second wash, the wells were filled with buffer, and the plate was kept at 37 °C for 30 min. After the incubation time, the HBSS buffer was replaced with the solutions of the compounds to be tested at a concentration of 1 × 10^–4 M. The plates were placed in an incubator at 37 °C for 120 min. The apparent permeability (P app), in units of nm s^–1, was calculated as previously reported. ,

[2] = biological target: P-glycoprotein (P-gp) (Homo sapiens, UniProt P08183); assay: P-gp interaction, Calcein-AM experiment; type: cell-based; conditions: for P-gp interaction % at 100 μM: inhibition at 100 μM; for EC50: Calcein-AM
P-glycoprotein (P-gp), sequence (P08183 whole entry): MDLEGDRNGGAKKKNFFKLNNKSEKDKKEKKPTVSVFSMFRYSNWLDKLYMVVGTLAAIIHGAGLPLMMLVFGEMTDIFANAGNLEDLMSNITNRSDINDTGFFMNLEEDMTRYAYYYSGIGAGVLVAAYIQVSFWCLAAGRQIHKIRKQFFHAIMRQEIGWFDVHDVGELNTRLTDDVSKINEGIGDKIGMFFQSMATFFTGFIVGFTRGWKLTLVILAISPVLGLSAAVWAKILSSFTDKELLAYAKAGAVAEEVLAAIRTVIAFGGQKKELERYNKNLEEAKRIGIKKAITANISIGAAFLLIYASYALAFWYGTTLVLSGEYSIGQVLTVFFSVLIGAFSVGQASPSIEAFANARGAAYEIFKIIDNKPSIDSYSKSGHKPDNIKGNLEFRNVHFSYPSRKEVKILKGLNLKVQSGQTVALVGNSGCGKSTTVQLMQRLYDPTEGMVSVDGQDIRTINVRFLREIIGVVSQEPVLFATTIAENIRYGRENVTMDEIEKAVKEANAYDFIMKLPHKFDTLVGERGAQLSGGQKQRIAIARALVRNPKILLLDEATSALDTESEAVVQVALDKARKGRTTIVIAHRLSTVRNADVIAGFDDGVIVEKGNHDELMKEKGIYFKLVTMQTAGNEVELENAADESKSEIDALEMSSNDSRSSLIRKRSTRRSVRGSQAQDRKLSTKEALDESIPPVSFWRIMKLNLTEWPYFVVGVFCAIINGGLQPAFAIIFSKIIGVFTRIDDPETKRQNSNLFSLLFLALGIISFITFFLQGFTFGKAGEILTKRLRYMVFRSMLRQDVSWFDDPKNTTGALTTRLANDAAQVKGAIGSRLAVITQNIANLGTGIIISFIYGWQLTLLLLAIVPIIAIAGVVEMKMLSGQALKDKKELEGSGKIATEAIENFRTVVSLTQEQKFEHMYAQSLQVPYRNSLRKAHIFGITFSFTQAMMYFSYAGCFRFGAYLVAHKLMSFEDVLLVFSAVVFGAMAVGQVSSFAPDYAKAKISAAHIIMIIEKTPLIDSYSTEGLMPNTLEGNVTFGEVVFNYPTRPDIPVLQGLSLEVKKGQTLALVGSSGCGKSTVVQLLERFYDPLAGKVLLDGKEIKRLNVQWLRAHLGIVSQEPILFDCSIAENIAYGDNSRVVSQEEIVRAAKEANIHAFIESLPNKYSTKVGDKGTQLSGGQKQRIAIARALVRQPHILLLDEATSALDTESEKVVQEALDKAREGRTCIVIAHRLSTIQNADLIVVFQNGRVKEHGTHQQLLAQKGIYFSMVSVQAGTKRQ
Experimental: as §1
This experiment was carried out as described by Contino et al. with minor modifications. Each cell line (30,000 cells per well) was seeded into black CulturePlate 96/wells plate with 100 μL medium and allowed to become confluent overnight. 100 μL of test compounds were solubilized in culture medium and added to monolayers, with final concentrations ranging from 0.1 to 100 μM. 96/Wells plate was incubated at 37 °C for 30 min. Calcein-AM was added in 100 μL of Phosphate Buffered Saline (PBS) to yield a final concentration of 2.5 μM and plate was incubated for 30 min. Each well was washed 3 times with ice cold PBS. Saline buffer was added to each well and the plate was read with Victor3 (PerkinElmer) at excitation and emission wavelengths of 485 and 535 nm, respectively. In these experimental conditions Calcein cell accumulation in the absence and in the presence of tested compounds was evaluated and fluorescence basal level was estimated with untreated cells. In treated wells the increase of fluorescence with respect to basal level was measured. EC50 values were determined by fitting the fluorescence increase percentage versus log[dose].

[3] = test system: human monocytes and macrophages (THP-1 cells); assay: Cytokine production in THP-1 monocytes and macrophages (ELISA/qRT-PCR); type: cell-based; conditions: 100 nM; for cytokine modulation profile (reduction of pro-inflammatory, increase of anti-inflammatory cytokines): monocytes and macrophages; for production of pro-inflammatory cytokines (TNF-α, IFN-γ, IL-1β, IL-6): unstimulated monocytes and macrophages, 24 h
Experimental: Six representative CB2R agonists (16i, 16j, 18e, 18f, 18o, and 18p) were evaluated for their ability to modulate the production of key pro- (e.g., TNF-α, IFN-γ, IL-1β, IL-6) and anti-inflammatory (e.g., IL-4, IL-10) cytokines in human monocytes and macrophages, where CB2R is abundantly expressed. The experiments were performed both in basal and LPS-activated states and would allow to gain insight into how these compounds affect circulating leukocytes (monocytes) and tissue-resident cells (macrophages). To mimic an inflammatory environment, both cell types were also treated with LPS, enabling an assessment of the anti-inflammatory potential of the compounds in both resting and activated states. Alongside the selected ligands, the study included HU308, a well-established CB2R-selective agonist known for its anti-inflammatory properties, and SR144528, a CB2R-selective antagonist. SR144528 was used alone and in combination with the test compounds to confirm that the observed effects were specifically mediated through CB2R activation.
8 Cytokines levels in human monocytes (A, B) and macrophages (C, D) treated with CB2R ligands. THP-1 cells either untreated (A-B) or treated (C, D) with 0.01 μM PMA for 48 h to differentiate them into macrophages, were incubated for additional 24 h in the absence (A, C) or presence of 10 μg/mL LPS (B, D), without (Ctrl) or with the CB2R reference agonist HU308, the reference antagonist SR144528 and the CB2R ligands 16i, 16j, 18e, 18f, 18o, 18p at 100 nM. All the compounds were tested alone (solid bars) and in the presence of the CB2R antagonist SR144528 (striped bars). Cytokine levels were measured by ELISA coupled with qRT-PCR. Data are means ± SD (n = 3). Two-way ANOVA followed by Tukey’s posthoc test was applied. *p < 0.05; **p < 0.01; ***p < 0.001; ****p < 0.0001; * indicates vs Ctrl.
The amount of cytokines was measured in 5 μL of supernatants, derived from 1 × 10^4 cells, using the ProQuantum immunoassays kits for TNF-α, IFN-γ, IL-1β, IL-6, IL-10, and IL-4 [all from ThermoFisher Scientific (Waltham, MA)] according to the manufacturer’s instructions. The results were expressed as pg/mL based on the titration curved of each kits.

[4] = biological target: CB1R (Homo sapiens, UniProt P21554); assay: CB1R radioligand binding competition ([3H]CP55,940); design: host or cells: CHO-CB1 C3 cell line; conditions: for CB1R % at 1 μM: percentage displacement of specific [3H]CP 55,940 binding at 1 μM, n = 2
CB1R, sequence (P21554 whole entry): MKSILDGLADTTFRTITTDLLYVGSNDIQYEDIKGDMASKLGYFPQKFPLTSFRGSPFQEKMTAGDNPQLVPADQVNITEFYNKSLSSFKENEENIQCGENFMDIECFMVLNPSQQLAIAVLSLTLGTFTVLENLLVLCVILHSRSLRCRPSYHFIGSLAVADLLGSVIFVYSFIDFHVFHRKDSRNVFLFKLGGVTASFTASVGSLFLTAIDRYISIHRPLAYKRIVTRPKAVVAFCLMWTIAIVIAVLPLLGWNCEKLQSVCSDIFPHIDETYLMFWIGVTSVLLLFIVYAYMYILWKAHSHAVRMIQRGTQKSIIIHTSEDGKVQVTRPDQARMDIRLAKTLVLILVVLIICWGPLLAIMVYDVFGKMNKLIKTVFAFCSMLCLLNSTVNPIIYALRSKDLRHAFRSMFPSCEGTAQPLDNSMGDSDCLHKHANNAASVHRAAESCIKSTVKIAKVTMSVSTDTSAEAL

[5] = biological target: T1, CB2R (Homo sapiens, UniProt P34972); assay: CB2R β-arrestin recruitment; type: cell-based; design: expressed in transfected cells; host or cells: HEK-293T, transient transfection (PEI); conditions: for Emax: normalized to CP 55,940
T1 sequence (P34972 whole entry): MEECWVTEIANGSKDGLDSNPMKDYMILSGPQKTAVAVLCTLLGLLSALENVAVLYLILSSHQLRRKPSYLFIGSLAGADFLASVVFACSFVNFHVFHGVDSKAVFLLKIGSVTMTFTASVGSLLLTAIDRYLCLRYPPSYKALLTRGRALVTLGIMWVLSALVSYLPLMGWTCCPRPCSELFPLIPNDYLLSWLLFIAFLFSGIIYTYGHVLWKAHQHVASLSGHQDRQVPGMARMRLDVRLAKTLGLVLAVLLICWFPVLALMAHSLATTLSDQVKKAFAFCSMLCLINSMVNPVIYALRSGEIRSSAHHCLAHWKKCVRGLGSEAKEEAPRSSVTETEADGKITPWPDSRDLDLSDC
From the text: Initially we tested their ability to modify CB2R-mediated cAMP accumulation, providing insights into their functional behavior as either agonists or antagonists (Table ). Moreover, the signaling profiles of selected ligands were investigated through their impact on β-arrestin recruitment and Mitogen-Activated Protein Kinase (MAPK) phosphorylation pathway, enabling a more comprehensive evaluation of their intracellular signaling profiles (Table ).
(§2) JWH-133, a well-known nonbiased (balanced) agonist, was employed as the reference for comparing the signaling profiles of the tested compounds. An operational model analysis was applied to quantify the functional bias of each CB2R-selective agonist. This involved calculating the bias factor by comparing the signaling pathways: β-arrestin versus cAMP, MAPK versus cAMP, and β-arrestin versus MAPK.

[6] = biological target: T1, CB2R; assay: Signaling bias quantification (relative activity model, JWH-133 reference); type: cell-based; design: expressed in transfected cells; host or cells: HEK-293T, transient transfection (PEI); conditions: in parentheses
From the text: as §2

Row | SMILES | efflux ratio at 120 min [1] | Papp A→B at 120 min [1] | Papp B→A at 120 min [1] | P-gp interaction % at 100 μM [2] | inhibition at 30 min, 1 μM ([2]; probe Calcein-AM (2.5 μM), at 1 μM as printed in text) | cytokine modulation profile (reduction of pro-inflammatory, increase of anti-inflammatory cytokines) [3] | production of pro-inflammatory cytokines (TNF-α, IFN-γ, IL-1β, IL-6) [3] | CB1R % at 1 μM [4] | EC50 [5] | Emax [5] | Preferred (biased) pathway MAPK – cAMP [6] | Preferred (biased) pathway β-arrestin – MAPK [6] | Preferred (biased) pathway β-arrestin – cAMP [6] | EC50 [2] | Ki ([4]; displacement of [3H]CP 55,940, membranes of CHO-CB1 C3 cells, n = 3)
1 | NC(=O)[C@@H]1CCCCN1C(=O)c1cn(CC2CCCCC2)c2ccccc12 [18e] | 0.51 | 99.5 ×10⁻⁶ cm/s | 50.6 ×10⁻⁶ cm/s | 30% | 30% | limited efficacy | significantly reduced | 19% | 0.4 ± 0.08 nM | 120% | MAPK | MAPK | β-arrestin | – | –
2 | NC(=O)[C@H]1CCCCN1C(=O)c1cn(CC2CCCCC2)c2ccccc12 [18f] | 0.49 | 79.2 ×10⁻⁶ cm/s | 39.3 ×10⁻⁶ cm/s | – | – | limited efficacy | significantly reduced | 11% | 0.08 ± 0.01 nM | 88% | MAPK | MAPK | β-arrestin | 61800 nM | –
3 | CCCCCn1nc(C(=O)N2CCCC[C@@H]2C(=O)OC)c2ccccc21 [16j] | – | – | – | – | – | significant reduction | significantly reduced | 3% | 0.28 ± 0.02 nM | 65% | No bias | MAPK | G protein | – | –
4 | CCCCCn1nc(C(=O)N2CCCC[C@H]2C(=O)OC)c2ccccc21 [16i] | – | – | – | – | – | significant reduction | significantly reduced | – | 1.09 ± 0.01 nM | 48% | G protein | MAPK | G protein | – | 685 ± 21 nM
5 | NC(=O)[C@@H]1CCCCN1C(=O)c1nn(Cc2ccc(F)cc2)c2ccccc12 [18o] | 0.39 | 72.7 ×10⁻⁶ cm/s | 29 ×10⁻⁶ cm/s | 49% | – | significant reduction | significantly reduced | – | 60.9 ± 2.5 nM | 148% | MAPK | MAPK | G protein | – | –
6 | NC(=O)[C@H]1CCCCN1C(=O)c1nn(Cc2ccc(F)cc2)c2ccccc12 [18p] | 0.35 | 63.2 ×10⁻⁶ cm/s | 21.9 ×10⁻⁶ cm/s | – | – | significant reduction | significantly reduced | 2% | 326 ± 4 nM | 77% | MAPK | MAPK | G protein | 56900 nM | –
